The source of these data is patent publication US11953435B2, “Zinc-responsive fluorophores” (Northwestern University, priority 2019, dated 2024).

The assay concerns C. elegans. Briefly: Confocal imaging of zinc in C. elegans worms. Type of assay: in vivo. The source says:
[formula] [formula] where r(t) is the anisotropy, P(t) is the polarization, Ivv and Ivh are intensities with polarization in the vertical plane and the excitation in the vertical and horizontal planes respectively, Ihv and Ihh are intensities with polarization in the horizontal plane and the excitation in the vertical and horizontal planes respectively, and G is a g-factor that corrects for instrument sensitivity in the horizontal and vertical planes. Metal content of NMR samples. Inductively coupled plasma mass spectrometry (ICP-MS) was performed on a Thermo iCAP Q ICP-MS. 1 mg/mL of ZincBY-1 or ZincBY-4 in acetonitrile-d3 or acetonitrile-d3 only was evaporated overnight at 70° C. 150 μL of HNO3 was added and the samples were digested overnight at 70° C. Samples were diluted to a final nitric acid concentration of 3%. […] Only ^56Fe and ^64Zn were detected in the samples above background levels. […] Calculated spectra were broadened by Gaussians of width 0.2 eV, and red shifted by 0.64 eV to better match the experimental spectra per Momeni and Brown (Ref. B7; incorporated by reference in its entirety). […] Wildtype strain Bristol N2 was used as a control strain in fluorescence microscopy experiments. […] III; ruIs57[unc-119(+) pie-P1^promoter:GFP::tubulin] was used as a marker for cortical granules in fluorescence microscopy experiments. […]

Entries after “also recorded” stand apart in the source; their conditions may differ.

As for `CC(=O)NCCOc1ccc2n1[B-](F)(F)[N+]1=C(N(CCN(Cc3ccccn3)Cc3ccccn3)Cc3ccccn3)C=CC1=C2c1c(C)cc(C)cc1C` [ZincBY-4, N-(2-((7-((2-(bis(pyridin-2-ylmethyl)amino)ethyl)(pyridin-2-ylmethyl)amino)-5,5-difluoro-10-mesityl-5H-5λ4,6λ4-dipyrrolo[1,2-c:2′,1′-f][1,3,2]diazaborinin-3-yl)oxy)ethyl)acetamide], the “fluorescence pattern in stained worms” value (ZincBY-4 stained worms) is “pattern of increasing fluorescence intensity as oocytes progress through the gonad”. Also, the “spectral overlap with GFP in C. elegans” value (single excitation at 488 nm) is “small amount of ZincBY-4 emission detected in the 495-530 nm emission channel; also recorded: very little overlap of ZincBY-4 in the GFP detection channel”.
